# Experimental data published in PubChem BioAssay (NCI).
#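 Briefly, cells in 96-well plates were exposed to five compound concentrations for 48 h, and endpoints were estimated by linear interpolation. At the GI50, growth is halved. TGI: concentration producing complete growth inhibition.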
# Legend:
# Experiment in all cases: NCI tumour cell line growth inhibition, 48 h
# CCRF-CEM leukemia = tested on: CCRF-CEM leukemia
# NCI-H226 lung = tested on: NCI-H226 lung
# UACC-257 melanoma = tested on: UACC-257 melanoma
# NCI/ADR-RES ovarian = tested on: NCI/ADR-RES ovarian
# SN12C renal = tested on: SN12C renal
# OVCAR-3 ovarian = tested on: OVCAR-3 ovarian
# HCC-2998 colon = tested on: HCC-2998 colon
# EKVX NSCLC = tested on: EKVX NSCLC
# HL-60(TB) leukemia = tested on: HL-60(TB) leukemia
# SF-295 CNS = tested on: SF-295 CNS
Structure (SMILES),GI50 (CCRF-CEM leukemia),TGI (CCRF-CEM leukemia),GI50 (NCI-H226 lung),TGI (NCI-H226 lung),GI50 (UACC-257 melanoma),TGI (UACC-257 melanoma),GI50 (NCI/ADR-RES ovarian),TGI (NCI/ADR-RES ovarian),GI50 (SN12C renal),TGI (SN12C renal),GI50 (OVCAR-3 ovarian),TGI (OVCAR-3 ovarian),GI50 (HCC-2998 colon),TGI (HCC-2998 colon),GI50 (EKVX NSCLC),TGI (EKVX NSCLC),GI50 (HL-60(TB) leukemia),TGI (HL-60(TB) leukemia),GI50 (SF-295 CNS),TGI (SF-295 CNS)
COc1cc(/C=C2\CN(S(=O)(=O)c3ccc(C)cc3)C/C(=C\c3cc(CN4CCCCC4)c(O)c(OC)c3)C2=O)cc(CN2CCCCC2)c1O,0.307 µM,1.13 µM,1.76 µM,4.29 µM,1.45 µM,3.02 µM,1.22 µM,3.77 µM,1.77 µM,3.42 µM,1.85 µM,3.59 µM,1.78 µM,3.37 µM,1.98 µM,4.58 µM,1.88 µM,4.34 µM,2.26 µM,5.15 µM
NC(Cc1c[nH]c2ccccc12)C(=O)O (stereo not given),–,> 300 µM,–,> 300 µM,–,> 300 µM,–,> 300 µM,–,> 13.9 µM,–,> 300 µM,–,> 300 µM,–,> 300 µM,–,> 300 µM,–,> 300 µM
